Measurements published in patent US20240374739A1, “BILE ACID CONJUGATE” (Curtin University, priority 2021, published 2024).

Key:
[1] = system: OC-1 cells; test: Seahorse bioenergetics experiment (oxygen consumption rate) after cisplatin; type: cell-based
Description: Mitochondrial function was analysed by measuring oxygen consumption rate (OCR) using real-time Seahorse Flux Analyser XF 96 (Seahorse Bioscience, USA) with our well-established method (Kovacevic, Bozica, et al. “Novel hydrogel comprising non-ionic copolymer with various concentrations of pharmacologically active bile acids for cellular injectable gel.” Colloids and Surfaces B: Biointerfaces (2022): 113014). Briefly, the first injection was with media without glucose, with subsequent ATP synthase inhibitor oligomycin and FCCP (carbonyl cyanide-p-trifluoromethoxy phenylhydrazone) and the final injection was complex […] inhibitors Rotenone+antimycin A 77. The result was automatically generated and analysed by the wave software. The OC-1 cells were pre-treated with cisplatin at three different concentrations (20, 30 and 40 μM) for 24 or 48 hours to induce cytotoxicity prior to the seahorse bioenergetics assays.

[2] = system: Rats subjected to sub-concussion (SC); test: Rotarod test, brain injury (sub-concussion) study (Experimental Example 3); type: in vivo; settings: at 12 weeks (FIG. 14)
Text: Repeated sub-concussive head impacts are reported to impair psychomotor function. Rats were subjected to sham procedure, sub-concussion (SC) with control diet (AlN93M), SC with probucol, SC with aged garlic extract (AGE), or SC with HA-1 for 12 weeks.
Both rotarod and beam walk tests assess neuromotor function. On beam walk, the higher the slips show the more impairment. On rotarod, the lower the latency indicates the more impairment.

[3] = system: diabetic db/db mice; test: Passive avoidance test (short-term memory) in diabetic db/db mice (Experimental Example 7); type: in vivo; settings: 14 and 28 weeks of age, compared to the control mice
Text: In this study, 4-5 week old diabetic db/db mice were put onto a diet containing probucol 0.1% (w/w) or HA-1 0.2% (w/w) for either 10 or 24 weeks, till the age of 14 or 28 weeks, respectively. Passive avoidance test was used to assess short-term memory. Subsequently, the mice were sacrificed to obtain plasma and brain tissue samples for further analyses.

[4] = system: Caspase 3/9 protein; test: Caspase assay; type: cell-based; settings: OC-1 cells under stressful, toxic conditions (FIG. 31)
Description: The caspase assay was carried as per manufacturer's instructions (abcam, NSW, Australia), as described below.
• Collagen coated cover slip • Fixing agent: 4% paraformaldehyde • Permeabilization agent 0.5% of Tween 20 or trition-X 100 diluted in PBS • Blocking: 1% BSA in PBST may also be used. • PBST: 0.1% Tween 20 in PBS • Primary abs (1:500 in PBS) • Secondary abs (1:1000 in PBS) • Hoechst (Nuclear stain)
First day: Fixation, permeabilize, blocking and add a primary antibody to the cells, as described below:
• Start by aspirating culture medium from each well followed by fixation of the cells with 4% Using 4% paraformaldehyde in PBS pH 7.4 for 10 min at room temperature. (Add one ml in each well). • Shake a plate for a few seconds.
0.5% of Tween 20 or trition-X 100 diluted in PBS. […]
• Make coverslips ready to be mounted onto microscope slides. • Take a clean slide and dispense one drop of antifade mounting medium by slowly from the pipette into the slide. • Carefully remove a coverslip from the well and allow excess wash to drip off and place the cells face down onto the slide. • Clear fingernail polish can be used to seal the coverslip and prevent it from drying out. • Visualized slide under microscope. […]

SMILES: CC(=O)O[C@@H]1CC[C@@]2(C)[C@H](CC[C@@H]3[C@@H]2CC[C@]2(C)[C@@H]([C@H](C)CCC(=O)Oc4c(C(C)(C)C)cc(SC(C)(C)Sc5cc(C(C)(C)C)c(O)c(C(C)(C)C)c5)cc4C(C)(C)C)CC[C@@H]32)C1 [HA-1, 2,6-di-tert-butyl-4-((2-((3,5-di-tert-butyl-4-hydroxyphenyl)thio)propan-2-yl)thio)phenyl (4R)-4-[(3R,5R,8R,9S,10S,13R,14S,17R)-3-acetoxy-10,13-dimethyl-2,3,4,5,6,7,8,9,11,12,14,15,16,17-tetradecahydro-1H-cyclopenta[a]phenanthren-17-yl]pentanoate]
- oxygen consumption rate (OCR) ([1]; OC-1 cells after 24 hours exposure to cisplatin (20, 30 and 40 μM)): significant and profound otoprotective effects
- oxygen consumption rate (OCR) ([1]; OC-1 cells after 48 hours exposure to cisplatin (20, 30 and 40 μM)): significantly reverse the cytotoxic effects of cisplatin
- rotarod latency (average) [2]: significantly increased the latency
- passive avoidance latency (short-term memory) [3]: significantly increased the latency
- protection against programmed cell death (caspase-3 activation) / viable cell population [4]: significant protection against programmed cell death
